Results from patent US20120070392A1, “COMPOSITION FOR INHIBITING ERYTHEMA CAUSED BY ULTRAVIOLET RADIATION CONTAINING A DIPEPTIDE AS ACTIVE INGREDIENT” (priority 2009, published 2012).

test system: PGE2 production; assay: Inhibition of UVB-induced PGE2 production in cultured human keratinocytes (PGE2 assay kit, calibrated with MTT absorbance); assay type: cell-based; details: not given
Protocol: Human keratinocytes were seeded at a density of 1×10^5 cells/well to 6-well plates containing 2 mL of KGM(keratinocyte growth medium, Clonetics, San Diego, Calif., USA) per well and cultured overnight. Then, the medium was replaced with KBM(keratinocyte basal medium) supplemented with 0.1% BSA(bovine serum albumin) and the cells were cultured for an additional 24 hours. Subsequently, the cells were pre-treated for an additional 24 hours with 2 mL of the same medium containing 10 μg/ml of each of the dipeptides listed in Table 1. […] The pre-treated medium was transferred to new 24 well plates and 1 mL of DPBS(Dulbecco's phosphate buffered saline) was added to the cells in each well. During UV irradiation, the transferred medium was stored in a cell incubator. […] At this time, the control was covered with aluminum foil. After the removal of DPBS, the transferred medium was returned to each well. The cells were further cultured for 24 hours, after which 1 mL of the medium was transferred to microcentrifuge tubes. […] The supernatants were then removed and the formazan crystals were solubilized in 1 ml of DMSO(dimethylsulfoxide). One hundred μL of the solution was transferred to each well of 96-well plates and an optical density was determined at 540 nm using an ELISA(enzyme-linked immunosorbent assay) reader. […] The concentration of PGE2 was determined using a PGE2 Assay Kit(KGE004, R&D Systems, Inc., Minneapolis, Minn., USA) according to the manufacturer's instruction. […] After removal of the reaction, the wells were washed five times with 400 μL of wash buffer. To each well was added 200 μL of a substrate solution, followed by incubation for 20 30 min. The reaction was terminated with 50 μL of a stop solution per well before determining absorbance at 450 nm on an ELISA reader. The PGE2 concentration of each sample was calculated from the standard graph and calibrated with the absorbance obtained in the MTT assay to determine their inhibitory activity against PGE2 production.

| Substance | % Inhibition against PGE2 Production [%] |
| --- | --- |
| tyrosine-aspartic acid [YD] | 88.0 |
| tyrosine-glutamic acid [YE] | 74.2 |
| tyrosine-glutamine [YQ] | 13.5 |
| tyrosine-isoleucine [YI] | 44.3 |
| tyrosine-leucine [YL] | 24.7 |
| tyrosine-lysine [YK] | 89.9 |
| tyrosine-methionine [YM] | 89.6 |
| tyrosine-phenylalanine [YF] | 12.7 |
| tyrosine-threonine [YT] | 91.5 |
| tyrosine-tyrosine [YY] | 83.5 |
| valine-asparagine [VN] | 31.3 |
| valine-cysteine [VC] | 43.3 |
| valine-histidine [VH] | 47.6 |
| valine-lysine [VK] | 42.0 |
| valine-tyrosine [VY] | 83.2 |
| valine-valine [VV] | 89.9 |

same assay, conditions: 10 μg/ml dipeptide, 24 h pre-treatment, human keratinocytes, UVB 100 mJ/cm^2, medium assayed 24 h after irradiation; 0% or lower expressed as zero; 10% or more regarded as effective

| Substance | % Inhibition against PGE2 Production [%] |
| --- | --- |
| valine-alanine | 64.7 |
| valine-praline [VP] | 50.5 |

same assay, conditions: 10 μg/ml dipeptide, 24 h pre-treatment, human keratinocytes, UVB 100 mJ/cm^2, medium assayed 24 h after irradiation; […]; 10% or more regarded as effective

| Substance | % Inhibition against PGE2 Production [%] |
| --- | --- |
| valine-arginine [VR] | 52.5 |
| valine-aspartic acid [VD] | 45.3 |
| valine-glutamic acid [VE] | 24.8 |
| valine-glutamine [VQ] | 71.2 |
| valine-isoleucine [VI] | 51.7 |
| valine-leucine [VL] | 47.0 |
| valine-phenylalanine [VF] | 12.2 |
